# Measurements from ChEMBL document CHEMBL4414613, “Antibacterial 5α-Spirostane Saponins from the Fruit of Cordyline manners-suttoniae” (J Nat Prod, 2019).
# Activity calls are given as the source filed them. The rule behind the calls is not given here.
# Columns and labels:
# Klebsiella pneumoniae [1] = assay: Bactericidal activity against Klebsiella pneumoniae ATCC 13883 at 90 uM incubated for 24 hrs by microdilution assay; assay type: functional, organism-based
# Klebsiella aerogenes [2] = assay: Bactericidal activity against Enterobacter aerogenes ATCC 13048 at 90 uM incubated for 24 hrs by microdilution assay; assay type: functional
# [3] = system: Enterobacter cloacae subsp. cloacae; assay: Antibacterial activity against Enterobacter cloacae ATCC 13047 at 90 uM incubated for 24 hrs by microdilution assay; assay type: functional
# Enterococcus faecium [4] = assay: Bactericidal activity against Enterococcus faecium ATCC 35667 at 90 uM incubated for 24 hrs by microdilution assay; assay type: functional, organism-based
# Pseudomonas aeruginosa [5] = assay: Antibacterial activity against Pseudomonas aeruginosa ATCC 49189 at 90 uM incubated for 24 hrs by microdilution assay; assay type: functional, organism-based
# Staphylococcus aureus [6] = assay: Antibacterial activity against Staphylococcus aureus ATCC 29247 at 90 uM incubated for 24 hrs by microdilution assay; assay type: functional, organism-based
# Acinetobacter baumannii [7] = assay: Antibacterial activity against Acinetobacter baumannii ATCC 19606 at 90 uM incubated for 24 hrs by microdilution assay; assay type: functional, organism-based; settings: ATCC 19606 = CIP 70.34 = JCM 6841
# Enterococcus faecium [8] = assay: Bactericidal activity against Enterococcus faecium C15 at 90 uM incubated for 24 hrs by microdilution assay; assay type: functional, organism-based
# Staphylococcus aureus [9] = assay: Antibacterial activity against Staphylococcus aureus ATCC 25923 at 90 uM incubated for 24 hrs by microdilution assay; assay type: functional, organism-based
# Klebsiella aerogenes [10] = assay: Antibacterial activity against Enterobacter aerogenes ATCC 13048 at 90 uM incubated for 24 hrs by microdilution assay; assay type: functional
# Acinetobacter baumannii [11] = assay: Bactericidal activity against Acinetobacter baumannii ATCC 17978 at 90 uM incubated for 24 hrs by microdilution assay; assay type: functional, organism-based
# Enterococcus faecium [12] = assay: Antibacterial activity against Enterococcus faecium ATCC 35667 at 90 uM incubated for 24 hrs by microdilution assay; assay type: functional, organism-based
# HaCaT = assay: Cytotoxicity against human HaCaT cells assessed as reduction in cell viability incubated for 4 days by CellTiter 96 aqueous one solution assay; assay type: cell-based; settings: 96 h
# [13] = Selectivity ratio of IC50 for human HaCaT cells to IC50 for human HDF cells by CellTiter 96 aqueous one solution assay
# Klebsiella pneumoniae [14] = assay: Antibacterial activity against Klebsiella pneumoniae ATCC 13883 at 90 uM incubated for 24 hrs by microdilution assay; assay type: functional, organism-based
# Staphylococcus aureus [15] = assay: Bactericidal activity against Staphylococcus aureus ATCC 29247 at 90 uM incubated for 24 hrs by microdilution assay; assay type: functional, organism-based
# [16] = system: Enterobacter cloacae subsp. cloacae; assay: Bactericidal activity against Enterobacter cloacae ATCC 13047 at 90 uM incubated for 24 hrs by microdilution assay; assay type: functional
# Klebsiella pneumoniae [17] = assay: Bactericidal activity against Klebsiella pneumoniae ATCC 12657 at 90 uM incubated for 24 hrs by microdilution assay; assay type: functional, organism-based
# Staphylococcus aureus [18] = assay: Bactericidal activity against Staphylococcus aureus ATCC 25923 at 90 uM incubated for 24 hrs by microdilution assay; assay type: functional, organism-based
# Enterococcus faecium [19] = assay: Antibacterial activity against Enterococcus faecium C15 incubated for 24 hrs by microdilution assay; assay type: functional
# NHDF = assay: Cytotoxicity against human HDF cells assessed as reduction in cell viability incubated for 7 days by CellTiter 96 aqueous one solution assay; assay type: functional, cell-based; settings: 168 h
# Pseudomonas aeruginosa [20] = assay: Antibacterial activity against Pseudomonas aeruginosa ATCC 10145 at 90 uM incubated for 24 hrs by microdilution assay; assay type: functional, organism-based
# Acinetobacter baumannii [21] = assay: Bactericidal activity against Acinetobacter baumannii ATCC 19606 at 90 uM incubated for 24 hrs by microdilution assay; assay type: functional, organism-based; settings: ATCC 19606 = CIP 70.34 = JCM 6841
# Pseudomonas aeruginosa [22] = assay: Bactericidal activity against Pseudomonas aeruginosa ATCC 49189 at 90 uM incubated for 24 hrs by microdilution assay; assay type: functional, organism-based
# Klebsiella pneumoniae [23] = assay: Antibacterial activity against Klebsiella pneumoniae ATCC 12657 at 90 uM incubated for 24 hrs by microdilution assay; assay type: functional, organism-based
# Pseudomonas aeruginosa [24] = assay: Bactericidal activity against Pseudomonas aeruginosa ATCC 10145 at 90 uM incubated for 24 hrs by microdilution assay; assay type: functional, organism-based
# Acinetobacter baumannii [25] = assay: Antibacterial activity against Acinetobacter baumannii ATCC 17978 at 90 uM incubated for 24 hrs by microdilution assay; assay type: functional, organism-based
# Enterococcus faecium [26] = assay: Antibacterial activity against Enterococcus faecium ATCC 35667 incubated for 24 hrs by microdilution assay; assay type: functional
# Staphylococcus aureus [27] = assay: Antibacterial activity against Staphylococcus aureus ATCC 25923 incubated for 24 hrs by microdilution assay; assay type: functional
# Enterococcus faecium [28] = assay: Bactericidal activity against Enterococcus faecium ATCC 35667 incubated for 24 hrs by microdilution assay; assay type: functional; settings: ATCC 35667, 24 h
# Staphylococcus aureus [29] = assay: Antibacterial activity against Staphylococcus aureus ATCC 29247 incubated for 24 hrs by microdilution assay; assay type: functional
# Enterococcus faecium [30] = assay: Bactericidal activity against Enterococcus faecium C15 incubated for 24 hrs by microdilution assay; assay type: functional; settings: C15, 24 h
Compound,Activity (Klebsiella pneumoniae [1]),Activity (Klebsiella aerogenes [2]),Activity [3],Activity (Pseudomonas aeruginosa [5]),Activity (Acinetobacter baumannii [7]),Activity (Klebsiella aerogenes [10]),Activity (Acinetobacter baumannii [11]),IC50 (HaCaT) [µM],Ratio IC50 [13],Activity (Klebsiella pneumoniae [14]),Activity (Staphylococcus aureus [15]),Activity [16],Activity (Klebsiella pneumoniae [17]),Activity (Staphylococcus aureus [18]),MIC75 (Enterococcus faecium [19]) [µM],IC50 (NHDF) [µM],Activity (Pseudomonas aeruginosa [20]),Activity (Acinetobacter baumannii [21]),Activity (Pseudomonas aeruginosa [22]),Activity (Klebsiella pneumoniae [23]),further results
C=C1CC[C@]2(OC1)O[C@H]1C[C@H]3[C@@H]4CC[C@H]5[C@H](O)[C@H](O)C[C@@H](O[C@@H]6O[C@H](C)[C@H](O)[C@H](O)[C@H]6O)[C@]5(C)[C@H]4CC[C@]3(C)[C@H]1[C@@H]2C,inactive,inactive,inactive,inactive,inactive,inactive,inactive,47.4,3 - 11,inactive,inactive,inactive,inactive,inactive,84.3,16.5,inactive,inactive,inactive,inactive,Activity (Enterococcus faecium [4]): inactive; Activity (Staphylococcus aureus [6]): inactive; Activity (Enterococcus faecium [8]): inactive; Activity (Staphylococcus aureus [9]): inactive; Activity (Enterococcus faecium [12]): inactive; Activity (Pseudomonas aeruginosa [24]): inactive; Activity (Acinetobacter baumannii [25]): inactive
C[C@@H]1CC[C@]2(OC1)O[C@H]1C[C@H]3[C@@H]4CC[C@H]5[C@H](O)[C@@H](O)C[C@@H](O[C@@H]6O[C@H](C)[C@H](O)[C@H](O)[C@H]6O)[C@]5(C)[C@H]4CC[C@]3(C)[C@H]1[C@@H]2C,inactive,inactive,inactive,inactive,inactive,inactive,inactive,36.3,3 - 11,inactive,inactive,inactive,inactive,inactive,84.1,8.6,inactive,inactive,inactive,inactive,Activity (Enterococcus faecium [4]): inactive; Activity (Staphylococcus aureus [6]): inactive; Activity (Enterococcus faecium [8]): inactive; MIC75 (Enterococcus faecium [26]): 84.1 µM; Activity (Staphylococcus aureus [9]): inactive; Activity (Pseudomonas aeruginosa [24]): inactive; Activity (Acinetobacter baumannii [25]): inactive
C=C1CC[C@]2(OC1)O[C@H]1C[C@H]3[C@@H]4CC[C@H]5C[C@H](O)C[C@@H](O[C@@H]6O[C@H](C)[C@H](O)[C@H](O)[C@H]6O)[C@]5(C)[C@H]4CC[C@]3(C)[C@H]1[C@@H]2C,inactive,inactive,inactive,inactive,inactive,inactive,inactive,38.9,3 - 11,inactive,inactive,inactive,inactive,inactive,21.7,8.3,inactive,inactive,inactive,inactive,MIC75 (Staphylococcus aureus [27]): 21.7 µM; MIC75 (Enterococcus faecium [26]): 43.3 µM; MBC (Enterococcus faecium [28]): 86.4 µM; MIC75 (Staphylococcus aureus [29]): 21.7 µM; MBC (Enterococcus faecium [30]): 86.4 µM; Activity (Pseudomonas aeruginosa [24]): inactive; Activity (Acinetobacter baumannii [25]): inactive
C=C1CC[C@]2(OC1)O[C@H]1C[C@H]3[C@@H]4CC[C@H]5[C@H](O)[C@@H](O)C[C@@H](O[C@@H]6O[C@H](C)[C@H](O)[C@H](O)[C@H]6O)[C@]5(C)[C@H]4CC[C@]3(C)[C@H]1[C@@H]2C,inactive,inactive,inactive,inactive,inactive,inactive,inactive,42.1,3 - 11,inactive,inactive,inactive,inactive,inactive,84.3,8.9,inactive,inactive,inactive,inactive,Activity (Enterococcus faecium [4]): inactive; Activity (Staphylococcus aureus [6]): inactive; Activity (Enterococcus faecium [8]): inactive; Activity (Staphylococcus aureus [9]): inactive; Activity (Enterococcus faecium [12]): inactive; Activity (Pseudomonas aeruginosa [24]): inactive; Activity (Acinetobacter baumannii [25]): inactive
C[C@@H]1CC[C@]2(OC1)O[C@H]1C[C@H]3[C@@H]4CC[C@H]5[C@H](O)[C@H](O)C[C@@H](O[C@@H]6O[C@H](C)[C@H](O)[C@H](O)[C@H]6O)[C@]5(C)[C@H]4CC[C@]3(C)[C@H]1[C@@H]2C,inactive,inactive,inactive,inactive,inactive,inactive,inactive,74.9,3 - 11,inactive,inactive,inactive,inactive,inactive,84.1,6.6,inactive,inactive,inactive,inactive,Activity (Enterococcus faecium [4]): inactive; Activity (Staphylococcus aureus [6]): inactive; Activity (Enterococcus faecium [8]): inactive; Activity (Staphylococcus aureus [9]): inactive; Activity (Enterococcus faecium [12]): inactive; Activity (Pseudomonas aeruginosa [24]): inactive; Activity (Acinetobacter baumannii [25]): inactive
O=C(N[C@H](CO)[C@H](O)c1ccc([N+](=O)[O-])cc1)C(Cl)Cl [CHLORAMPHENICOL],,,,,,,,,,,inactive,,,inactive,9.7,,,,,,Activity (Enterococcus faecium [4]): inactive; MIC75 (Staphylococcus aureus [27]): 9.7 µM; Activity (Enterococcus faecium [8]): inactive; MIC75 (Enterococcus faecium [26]): 9.7 µM; MIC75 (Staphylococcus aureus [29]): 9.7 µM
COc1cccc2c1C(=O)c1c(O)c3c(c(O)c1C2=O)C[C@@](O)(C(=O)CO)C[C@@H]3O[C@H]1C[C@H](N)[C@H](O)[C@H](C)O1 [DOXORUBICIN],,,,,,,,0.01,,,,,,,,0.011,,,,,
C[C@@H]1CC[C@]2(OC1)O[C@H]1C[C@H]3[C@@H]4CC[C@H]5C[C@H](O)C[C@@H](O[C@@H]6O[C@H](C)[C@H](O)[C@H](O)[C@H]6O)[C@]5(C)[C@H]4CC[C@]3(C)[C@H]1[C@@H]2C,inactive,inactive,inactive,inactive,inactive,inactive,inactive,36.5,3 - 11,inactive,inactive,inactive,inactive,inactive,43.2,7.5,inactive,inactive,inactive,inactive,MIC75 (Staphylococcus aureus [27]): 43.2 µM; MIC75 (Enterococcus faecium [26]): 43.2 µM; MBC (Enterococcus faecium [28]): 86.4 µM; MIC75 (Staphylococcus aureus [29]): 43.2 µM; MBC (Enterococcus faecium [30]): 86.4 µM; Activity (Pseudomonas aeruginosa [24]): inactive; Activity (Acinetobacter baumannii [25]): inactive
